# Results as given in US20170232083A1, “METHODS OF DIAGNOSIS AND TREATMENT OF CELIAC DISEASE IN CHILDREN” (priority 2014, published 2017).
# System: PBMC (polyclonal gluten-specific T cells) of paediatric and adult CD patients
# Experiment: IFN-γ ELISpot of PBMC after 3 day oral wheat challenge (SFU, % of maximal peptide response, dominance scores, EC50; Examples 5-6)
# Type: cell-based, human
# Settings: for IFN-γ ELISpot response: after oral wheat challenge; for Cross-reactive T cell response: following wheat challenge
# [1] = patient A, 11-17 yrs, cut-off 10 SFU
# [2] = patient E, H, 11-17 yrs, cut-off 10 SFU
# [3] = patient F, 11-17 yrs, cut-off 10 SFU
# [4] = patient G, 11-17 yrs, cut-off 10 SFU
# [5] = patient H (HLA-DQ2.5 homozygote), 3-5yrs, cut-off 10 SFU
# [6] = patient H, 11-17 yrs, cut-off 10 SFU
# [7] = patient ID not given, 11-17 yrs, cut-off 10 SFU
# [8] = patient N, 3-5yrs, cut-off 10 SFU
# [9] = patient P, 11-17 yrs, cut-off 21.6 SFU
# [10] = patient Q, 11-17 yrs, cut-off 10 SFU
# [11] = patient U, H, 11-17 yrs, cut-off 10 SFU
# [12] = patient V, 6-10 yrs, cut-off 10 SFU
# [13] = patient Y, 6-10 yrs, cut-off 10 SFU
# [14] = patient eleven, 6-10 yrs, cut-off 10 SFU
# [15] = patient four, 3-5yrs, cut-off 10 SFU
# [16] = patient seven, 6-10 yrs, cut-off 10.5 SFU
# [17] = patient ten, 3-5yrs, cut-off 10 SFU
# [18] = patient three, 6-10 yrs, cut-off 10.5 SFU
# [19] = patient twelve, 11-17 yrs, cut-off 10 SFU
# [20] = patient two, 3-5yrs, cut-off 10 SFU
sequence,measurement,setting,value
PEQTFPEQPQLPF,IFN-γ ELISpot response,[1],3 SFU
same,IFN-γ ELISpot response,[2],19 SFU
same,Significant response as percentage of maximal peptide SFU,"patient E, max peptide 224 SFU",(6-10% = ^)
same,IFN-γ ELISpot response,[3],1 SFU
same,IFN-γ ELISpot response,[4],15 SFU
same,Significant response as percentage of maximal peptide SFU,"patient G, max peptide 15 SFU",+ (>70% = +)
same,IFN-γ ELISpot response,[5],2 SFU
same,IFN-γ ELISpot response,[6],9 SFU
same,IFN-γ ELISpot response,[7],0 SFU
same,Significant response as percentage of maximal peptide SFU,"patient J, max peptide 196 SFU",+ (>70% = +)
same,Significant response as percentage of maximal peptide SFU,"patient K, max peptide 53 SFU",′′′ (41-70% = ′′′)
same,IFN-γ ELISpot response,[8],1 SFU
same,IFN-γ ELISpot response,[9],4 SFU
same,IFN-γ ELISpot response,[10],2 SFU
same,IFN-γ ELISpot response,[11],1 SFU
same,IFN-γ ELISpot response,[12],4 SFU
same,IFN-γ ELISpot response,[13],1 SFU
same,IFN-γ ELISpot response,[14],0 SFU
same,IFN-γ ELISpot response,[15],0 SFU
same,IFN-γ ELISpot response,[16],4 SFU
same,IFN-γ ELISpot response,[17],4 SFU
same,IFN-γ ELISpot response,[18],179 SFU
same,IFN-γ ELISpot response,[19],0 SFU
same,IFN-γ ELISpot response,[20],1 SFU
QPFPQPEQQLPLQ,Cross-reactive T cell response,"subject A, 11-17yrs",1 SFU
same,Cross-reactive T cell response,"subject D, 11-17yrs",5 SFU
same,Significant response as a percentage of maximal peptide SFU,"subject E, 11-17yrs",′ (11-20% = ′)
same,Cross-reactive T cell response,"subject E, 11-17yrs",30 SFU
same,Cross-reactive T cell response,"subject F, 11-17yrs",5 SFU
same,Cross-reactive T cell response,"subject G, 11-17yrs",1 SFU
same,Cross-reactive T cell response,subject H,1 SFU
same,Cross-reactive T cell response,subject I (3-5yrs/6-10yrs part),3 SFU
same,Significant response as a percentage of maximal peptide SFU,subject J,′′′ (41-70% = ′′′)
same,Cross-reactive T cell response,subject J (3-5yrs/6-10yrs part),79 SFU
same,Cross-reactive T cell response,subject K (3-5yrs/6-10yrs part),9 SFU
same,Cross-reactive T cell response,"subject P, 11-17yrs",11 SFU
same,Significant response as a percentage of maximal peptide SFU,"subject Q, 11-17yrs",′ (11-20% = ′)
same,Cross-reactive T cell response,"subject Q, 11-17yrs",11 SFU
same,Significant response as a percentage of maximal peptide SFU,"subject T, 11-17yrs",′′ (21-40% = ′′)
same,Cross-reactive T cell response,"subject T, 11-17yrs",27 SFU
same,Cross-reactive T cell response,"subject U, 11-17yrs",4 SFU
same,Cross-reactive T cell response,subject V (3-5yrs/6-10yrs part),3 SFU
same,Cross-reactive T cell response,subject W (3-5yrs/6-10yrs part),3 SFU
same,Cross-reactive T cell response,subject Y (3-5yrs/6-10yrs part),5 SFU
same,Significant response as a percentage of maximal peptide SFU,subject five,′′ (21-40% = ′′)
same,Cross-reactive T cell response,subject five (3-5yrs/6-10yrs part),11 SFU
same,Cross-reactive T cell response,"subject nine, 11-17yrs",3 SFU
same,Cross-reactive T cell response,subject seven (3-5yrs/6-10yrs part),11 SFU
same,Significant response as a percentage of maximal peptide SFU,subject six,+ (>70% = +)
same,Cross-reactive T cell response,subject six (3-5yrs/6-10yrs part),11 SFU
same,Cross-reactive T cell response,subject ten (3-5yrs/6-10yrs part),6 SFU
same,Cross-reactive T cell response,subject two (3-5yrs/6-10yrs part),2 SFU
LQPFPQPELPYPQPQ,IFN-γ ELISpot response,[1],2.5 SFU
same,Significant response as percentage of maximal peptide SFU,"patient D, max peptide 30.5 SFU",+ (>70% = +)
same,IFN-γ ELISpot response,[2],152 SFU
same,Significant response as percentage of maximal peptide SFU,"patient E, max peptide 224 SFU",′′′ (41-70% = ′′′)
same,IFN-γ ELISpot response,[3],166.5 SFU
same,Significant response as percentage of maximal peptide SFU,"patient F, max peptide 178 SFU",+ (>70% = +)
same,IFN-γ ELISpot response,[4],10 SFU
same,Significant response as percentage of maximal peptide SFU,"patient G, max peptide 15 SFU",′′′ (41-70% = ′′′)
same,IFN-γ ELISpot response,[5],31 SFU
same,IFN-γ ELISpot response,[6],8 SFU
same,IFN-γ ELISpot response,[7],66.5 SFU
same,Significant response as percentage of maximal peptide SFU,"patient ID not given, max peptide 95 SFU",′′′ (41-70% = ′′′)
same,Significant response as percentage of maximal peptide SFU,"patient J, max peptide 196 SFU",′′′ (41-70% = ′′′)
same,Significant response as percentage of maximal peptide SFU,"patient K, max peptide 53 SFU",′′ (21-40% = ′′)
same,Significant response as percentage of maximal peptide SFU,"patient M, max peptide 48 SFU",′′′ (41-70% = ′′′)
same,IFN-γ ELISpot response,[8],5.5 SFU
same,IFN-γ ELISpot response,[9],41.5 SFU
same,Significant response as percentage of maximal peptide SFU,"patient P, max peptide 64 SFU",′′′ (41-70% = ′′′)
same,IFN-γ ELISpot response,[10],67.5 SFU
same,Significant response as percentage of maximal peptide SFU,"patient Q, max peptide 97 SFU",′′′ (41-70% = ′′′)
same,IFN-γ ELISpot response,[11],45 SFU
same,Significant response as percentage of maximal peptide SFU,"patient U, max peptide 81 SFU",′′′ (41-70% = ′′′)
same,IFN-γ ELISpot response,[12],30 SFU
same,Significant response as percentage of maximal peptide SFU,"patient V, max peptide 35 SFU",+ (>70% = +)
same,IFN-γ ELISpot response,[13],10.5 SFU
same,Significant response as percentage of maximal peptide SFU,"patient Y, max peptide 16 SFU",′′′ (41-70% = ′′′)
same,Significant response as percentage of maximal peptide SFU,"patient Z, max peptide 13 SFU",+ (>70% = +)
same,Significant response as percentage of maximal peptide SFU,"patient eight, max peptide 12 SFU",+ (>70% = +)
same,IFN-γ ELISpot response,[14],57 SFU
same,Significant response as percentage of maximal peptide SFU,"patient eleven, max peptide 57 SFU",+ (>70% = +)
same,Significant response as percentage of maximal peptide SFU,"patient five, max peptide 48 SFU",+ (>70% = +)
same,IFN-γ ELISpot response,[15],40.5 SFU
same,Significant response as percentage of maximal peptide SFU,"patient one, max peptide 16.5 SFU",+ (>70% = +)
same,IFN-γ ELISpot response,[16],8 SFU
same,IFN-γ ELISpot response,"patient six, 3-5yrs, cut-off 10 SFU",13 SFU
same,Significant response as percentage of maximal peptide SFU,"patient six, max peptide 13 SFU",+ (>70% = +)
same,IFN-γ ELISpot response,[17],14 SFU
same,Significant response as percentage of maximal peptide SFU,"patient ten, max peptide 14.5 SFU",+ (>70% = +)
same,IFN-γ ELISpot response,[18],99.5 SFU
same,IFN-γ ELISpot response,[19],27 SFU
same,IFN-γ ELISpot response,[20],29 SFU
same,Significant response as percentage of maximal peptide SFU,"patient two, max peptide 60 SFU",′′′ (41-70% = ′′′)
